Measurements: patent US12287332B2, “Test cartridges” (First Light Diagnostics, Inc., priority 2018, dated 2025)
Values after ≈ are worked out from the molar mass of the structure shown.

What was measured:
Type in all cases: cell-based
[1] = tested on: K. pneumoniae strain in clinical urine sample BIUR0084; experiment: Automated MultiPath AST cartridge on clinical urine, Example 8; conditions: 4 h growth, fold growth value of 2, matched CLSI broth microdilution
K. pneumoniae CDC0126 = experiment: Novel rapid AST (4 h differential growth, FISH cell counting) in urine matrix, Example 7; conditions: Klebsiella pneumoniae, 4 h growth, fold-growth threshold 20, read-out: MIC generated by novel rapid AST method
Experimental: Bacterial cell preparation: 50 bacterial strains with known resistance profiles were collected from either the ATCC or from the CDC antibiotic resistance bank (AR bank) and are shown in Table A. Bacterial cultures for each of these were obtained by inoculating Trypticase Soy Broth (TSB, Hardy Diagnostics cat. U65) with 3 to 5 colonies from fresh tryptic soy agar plates (TSA, BD cat. 221185) and growing for 1.5 to 3 hours at 35° C. to achieve log-phase growth. Using optical density at 600 nm to estimate cell concentration, each culture was diluted to approximately 5×10^6 colony-forming units (CFU)/mL in cation-adjusted Mueller Hinton II (MHBII, Teknova cat. M5860).
A reaction mixture was prepared consisting of 30 μL processed urine, 10 μL of the 5×10^6 CFU/mL bacterial dilution, 60 μL MHBII (1× final concentration in 100 μL) and the appropriate species-specific Alexa647N-labeled DNA oligonucleotide FISH probe and its associated unlabeled DNA helper probes for the target bacterial species. […] 10 μL of the prepared magnetic particle mixture was then added to the well. […]
Four Hour Growth: While the time zero cell quantification was occurring, 12 μL of prepared bacterial culture, 36 uL pooled human urine processed as done for the assay time zero, 60 uL of 2×MHB II (Teknova, cat. #M5860) and 2 uL water was added to each well of the prepared antibiotic plate. […]

E. coli ATCC 25922 = experiment: Novel 4.5-hour AST in presence of beta-lactamase producing K. pneumoniae, Example 11; conditions: Escherichia coli, ATCC25922, 4.5 h; sensitive E. coli strain; increasing amounts of beta-lactamase producing K. pneumoniae; read-out: MIC, novel 4.5-hour AST method
Experimental: Experimental procedure. Preparation of Antibiotic Plates: Antibiotic plates prepared as described in Impact of Non-Sterile Sample on Target MIC example.
E. coli was diluted to 5×10^5 CFU/mL (CLSI standard concentration) while K. pneumoniae was diluted to various inoculum (ranging from 1×10^6 and 5×10^8 CFU/mL).
30 μL of each processed urine was added to 70 μL of 1× cation-adjusted Mueller-Hinton Broth (MHBII) containing species-specific Alexa647N-labeled DNA oligonucleotide FISH probes and unlabeled DNA helper probes. […] 10 μL of the prepared magnetic particle mixture was then added to the well.
Four-Hour Growth: The E. coli was tested in the presence of varying inoculum of K. pneumoniae-OXA for susceptibility against 2 antimicrobial agents: Imipenem and Meropenem.
100 μL of each well of the incubated sample-antibiotic plate was transferred to a corresponding well of a dehydrated buffer plate and combined with FISH probes, helper probes, magnetic particles, and focus particles in the same manner as described above for assay time zero.
All data was then compared to CLSI standard BMD.

| Molecule | sensitive/resistant call by MultiPath [1] | further results |
| --- | --- | --- |
| Cc1nnc(SCC2=C(C(=O)O)N3C(=O)[C@@H](NC(=O)Cn4cnnn4)[C@H]3SC2)s1 [Cefazolin] | resistant | – |
| O=C(O)c1cn(C2CC2)c2cc(N3CCNCC3)c(F)cc2c1=O [Ciprofloxacin] | – | MIC (K. pneumoniae CDC0126): 0.25 mg/L (≈ 0.754 µM) |
| C[C@@H](O)[C@H]1C(=O)N2C(C(=O)O)=C(SCCN=CN)C[C@H]12 [Imipenem] | – | MIC (E. coli ATCC 25922): < 1 mg/L |
| Trimethoprim/Sulfamethoxazole | resistant | – |
